Data: patent US12077503B2, “Substituted cyclic amides and their use as herbicides” (FMC CORPORATION, priority 2015, dated 2024)
Where two headings read alike, the source gives them in different places.

Columns and labels:
Assay type in all cases: in vivo
[1] = tested on: giant foxtail (Setaria faberii); assay: Test A postemergence; conditions: Setaria faberi, post-emergence, 240 h, 125 g ai/ha, Postemergence; visual injury after approximately 10 d; 0 to 100 scale where 0 is no effect and 100 is complete control; read-out: Plant response rating, Foxtail, Giant
How it was run: (§1)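 Compounds were formulated in a non-phytotoxic solvent mixture with surfactant and applied as a preemergence directed soil spray after seeding, or sprayed postemergence over plants 2 to 10 cm tall at the one- to two-leaf stage. Evaluation after about 10 d compared treated with untreated controls, using a scale from 0 (no effect) to 100 (complete control).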

[2] = tested on: barnyardgrass (Echinochloa crus-galli); assay: Test A postemergence; conditions: Echinochloa crus-galli, post-emergence, 240 h, 125 g ai/ha, Postemergence; visual injury after approximately 10 d; 0 to 100 scale where 0 is no effect and 100 is complete control; read-out: Plant response rating, Barnyardgrass
How it was run: as §1

[3] = tested on: Kochia (Kochia scoparia); assay: Test A postemergence; conditions: Bassia scoparia, post-emergence, 240 h, 125 g ai/ha, Postemergence; visual injury after approximately 10 d; 0 to 100 scale where 0 is no effect and 100 is complete control; read-out: Plant response rating, Kochia
How it was run: as §1

[4] = tested on: wheat (Triticum aestivum); assay: Test A postemergence; conditions: Triticum aestivum, post-emergence, 240 h, 125 g ai/ha, Postemergence; visual injury after approximately 10 d; 0 to 100 scale where 0 is no effect and 100 is complete control; read-out: Plant response rating, Wheat
How it was run: as §1

[5] = tested on: rice (Oryra sativa); assay: Test B flooded paddy test; conditions: Oryza sativa, Flood, 250 g ai/ha; scale of 0 to 100 where 0 is no effect and 100 is complete control; read-out: Rice plant response rating
How it was run: (§2)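 Evaluation by eye, against controls, occurred 13–15 d post-treatment in a greenhouse, using a 0 (no effect) to 100 (complete control) scale. Application was into the paddy water, 3 cm deep over the soil, on 2-leaf plants.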

[6] = tested on: sedge, umbrella (small-flower umbrella sedge, Cyperus difformis); assay: Test B flooded paddy test; conditions: Cyperus difformis, Flood, 250 g ai/ha; scale of 0 to 100 where 0 is no effect and 100 is complete control; read-out: Sedge, Umbrella plant response rating
How it was run: as §2

[7] = tested on: barnyardgrass (Echinochloa crus-galli); assay: Test B flooded paddy test; conditions: Echinochloa crus-galli, Flood, 250 g ai/ha; scale of 0 to 100 where 0 is no effect and 100 is complete control; read-out: Barnyardgrass plant response rating
How it was run: as §2

[8] = tested on: ducksalad (Heteranthera limosa); assay: Test B flooded paddy test; conditions: Heteranthera limosa, Flood, 250 g ai/ha; scale of 0 to 100 where 0 is no effect and 100 is complete control; read-out: Ducksalad plant response rating
How it was run: as §2

[9] = tested on: ryegrass, Italian (Italian ryegrass, Lolium multiflorum); assay: Test A preemergence; conditions: Lolium multiflorum, pre-emergence, 240 h; for pest or weed control at 125 g/ha: 125 g ai/ha, 0 to 100 scale where 0 is no effect and 100 is complete control; for pest or weed control at 500 g/ha: 500 g ai/ha
How it was run: as §1

[10] = tested on: giant foxtail (Setaria faberii); assay: Test A preemergence; conditions: Setaria faberi, pre-emergence, 240 h; for pest or weed control at 125 g/ha: 125 g ai/ha, 0 to 100 scale where 0 is no effect and 100 is complete control; for pest or weed control at 500 g/ha: 500 g ai/ha
How it was run: as §1

[11] = tested on: barnyardgrass (Echinochloa crus-galli); assay: Test A preemergence; conditions: Echinochloa crus-galli, pre-emergence, 240 h; for pest or weed control at 125 g/ha: 125 g ai/ha, 0 to 100 scale where 0 is no effect and 100 is complete control; for pest or weed control at 500 g/ha: 500 g ai/ha
How it was run: as §1

[12] = tested on: Kochia (Kochia scoparia); assay: Test A preemergence; conditions: Bassia scoparia, pre-emergence, 240 h; for pest or weed control at 125 g/ha: 125 g ai/ha, 0 to 100 scale where 0 is no effect and 100 is complete control; for pest or weed control at 500 g/ha: 500 g ai/ha
How it was run: as §1

[13] = tested on: ragweed (common ragweed, Ambrosia elatior); assay: Test A preemergence; conditions: Ambrosia artemisiifolia, pre-emergence, 240 h; for pest or weed control at 125 g/ha: 125 g ai/ha, 0 to 100 scale where 0 is no effect and 100 is complete control; for pest or weed control at 500 g/ha: 500 g ai/ha
How it was run: as §1

[14] = tested on: pigweed (Amaranthus retroflexus); assay: Test A preemergence; conditions: Amaranthus retroflexus, pre-emergence, 240 h; for pest or weed control at 125 g/ha: 125 g ai/ha, 0 to 100 scale where 0 is no effect and 100 is complete control; for pest or weed control at 500 g/ha: 500 g ai/ha
[15] = preemergence, read-out: Ryegrass, Italian plant response rating
[16] = Preemergence, visual injury vs untreated controls after approximately 10 d, read-out: Ryegrass, Italian plant response rating (0 to 100 scale where 0 is no effect and 100 is complete control)
[17] = preemergence, read-out: Foxtail, Giant plant response rating
[18] = Preemergence, visual injury vs untreated controls after approximately 10 d, read-out: Foxtail, Giant plant response rating (0 to 100 scale where 0 is no effect and 100 is complete control)
[19] = preemergence, read-out: Barnyardgrass plant response rating
[20] = Preemergence, visual injury vs untreated controls after approximately 10 d, read-out: Barnyardgrass plant response rating (0 to 100 scale where 0 is no effect and 100 is complete control)
[21] = preemergence, read-out: Kochia plant response rating
[22] = Preemergence, visual injury vs untreated controls after approximately 10 d, read-out: Kochia plant response rating (0 to 100 scale where 0 is no effect and 100 is complete control)
[23] = preemergence, read-out: Ragweed plant response rating
[24] = Preemergence, visual injury vs untreated controls after approximately 10 d, read-out: Ragweed plant response rating (0 to 100 scale where 0 is no effect and 100 is complete control)
[25] = preemergence, read-out: Pigweed plant response rating
[26] = Preemergence, visual injury vs untreated controls after approximately 10 d, read-out: Pigweed plant response rating (0 to 100 scale where 0 is no effect and 100 is complete control)
[27] = preemergence, visual injury rating about 10 d after treatment, 0 to 100 scale (0 no effect, 100 complete control), read-out: Ryegrass, Italian plant response rating
[28] = preemergence, visual injury rating about 10 d after treatment, 0 to 100 scale (0 no effect, 100 complete control), read-out: Foxtail, Giant plant response rating
[29] = preemergence, visual injury rating about 10 d after treatment, 0 to 100 scale (0 no effect, 100 complete control), read-out: Barnyardgrass plant response rating
[30] = preemergence, visual injury rating about 10 d after treatment, 0 to 100 scale (0 no effect, 100 complete control), read-out: Kochia plant response rating
[31] = preemergence, visual injury rating about 10 d after treatment, 0 to 100 scale (0 no effect, 100 complete control), read-out: Ragweed plant response rating
[32] = preemergence, visual injury rating about 10 d after treatment, 0 to 100 scale (0 no effect, 100 complete control), read-out: Pigweed plant response rating

Compound	pest or weed control at 125 g/ha [1] [%]	pest or weed control at 125 g/ha [2] [%]	pest or weed control at 125 g/ha [3] [%]	plant injury at 125 g/ha [4] [%]	pest or weed control at 250 g/ha [5] [%]	pest or weed control at 250 g/ha [6] [%]	pest or weed control at 250 g/ha [7] [%]	pest or weed control at 250 g/ha [8] [%]	pest or weed control at 125 g/ha [9, 15] [%]	pest or weed control at 500 g/ha [9, 16] [%]	pest or weed control at 125 g/ha [10, 17] [%]	pest or weed control at 500 g/ha [10, 18] [%]	pest or weed control at 125 g/ha [11, 19] [%]	pest or weed control at 500 g/ha [11, 20] [%]	pest or weed control at 125 g/ha [12, 21] [%]	pest or weed control at 500 g/ha [12, 22] [%]	pest or weed control at 125 g/ha [13, 23] [%]	pest or weed control at 500 g/ha [13, 24] [%]	pest or weed control at 125 g/ha [14, 25] [%]	pest or weed control at 500 g/ha [14, 26] [%]	also measured
CN1C[C@H](c2ccc(C(F)(F)F)cc2)[C@@H](C(=O)Nc2ccccc2[S+](C)[O-])C1=O (stereo partly shown) [Compound 915]	90	90	20	40	20	0	40	100	40	70	90	100	100	100	80	90	80	90	80	90	
CON1CC[C@H](c2ccc(F)cc2)[C@@H](C(=O)Nc2cccc(F)c2F)C1=O [Compound 918]	0	0	0	0	15	0	0	30	0	0	20	70	0	40	0	0	0	0	0	0	
CN1CC[C@H](c2cccc(C(F)(F)F)c2)[C@@H](C(=O)Nc2ccccc2S(C)(=O)=O)C1=O [Compound 920]	20	40	0	0	0	0	0	0	0	0	80	90	70	90	0	0	0	0	0	0	
CN1CC[C@H](c2cccc(Cl)c2)[C@@H](C(=O)Nc2cccc(F)c2F)C1=O [Compound 921]	90	90	0	20	20	0	85	90	50	60	90	100	90	90	0	30	0	0	0	0	
Cc1cc([C@H]2CN(C)C(=O)[C@@H]2C(=O)Nc2ccccc2F)ccc1Cl [Compound 928]	90	90	40	40	0	0	55	80	40		90		90		80		0		0		pest or weed control at 500 g/ha [9, 27]: 70%; pest or weed control at 500 g/ha [10, 28]: 90%; pest or weed control at 500 g/ha [11, 29]: 90%; pest or weed control at 500 g/ha [12, 30]: 80%; pest or weed control at 500 g/ha [13, 31]: 0%; pest or weed control at 500 g/ha [14, 32]: 20%
Cc1cc([C@H]2CN(C)C(=O)[C@@H]2C(=O)Nc2ccc(F)cc2F)ccc1Cl [Compound 930]	80	80	20	30	0	0	50	80			90		90		70				20		pest or weed control at 500 g/ha [9, 27]: 70%; pest or weed control at 500 g/ha [10, 28]: 90%; pest or weed control at 500 g/ha [11, 29]: 90%; pest or weed control at 500 g/ha [12, 30]: 90%; pest or weed control at 500 g/ha [13, 31]: 0%; pest or weed control at 500 g/ha [14, 32]: 30%
